From the Deep4Chem optical property database
One block for each compound: values may come before it.

Experiment: photoluminescence quantum yield (fraction); solvent given as SMILES
[1] = in c1cc(-c2cccc(-n3c4ccccc4c4ccccc43)c2)cc(-n2c3ccccc3c3ccccc32)c1

photoluminescence quantum yield (in CC#N): 0.037
photoluminescence quantum yield (in CS(C)=O): 0.085
photoluminescence quantum yield (in ClCCl): 0.059
Compound: O=[N+]([O-])c1ccc(-c2nc3c(c4c2-c2ccccc2CC4)-c2ccccc2CC3)cc1

photoluminescence quantum yield (in CO): 0.032
photoluminescence quantum yield (in ClC(Cl)Cl): 0.16
Compound: Cc1nc2c(ccc3c2sc(/C=C/C=C/c2ccc(N(C)C)cc2)[n+]3C)s1

photoluminescence quantum yield (in C1CCCCC1): 0.86
Compound: CCC(C)(C)c1ccc(-c2ccc3c(c2)C(CCOC)(CCOC)c2cc4c(cc2-3)C(CCOC)(CCOC)c2cc(-c3ccc(C(C)(C)CC)cc3)ccc2-4)cc1

photoluminescence quantum yield (in CC#N): 0.43
photoluminescence quantum yield (in CS(C)=O): 0.33
photoluminescence quantum yield (in ClC(Cl)Cl): 0.62
Compound: C#CCn1c2ccccc2c2cc(/C=C/c3c(Cl)c(C)c4n3[B-](F)(F)[N+]3=C(C)C(Cl)=C(C)C3=C4c3ccc(I)cc3)ccc21

photoluminescence quantum yield (in CO): 0.66
Compound: C#CCOc1ccc(/C=C/C2=[N+]3C(=C(c4ccc(N(C)C)cc4)c4c(C)cc(C)n4[B-]3(F)F)C(C)=C2)cc1

photoluminescence quantum yield (in ClCCl): 0.65
Compound: N#Cc1ccc(/C=C/c2ncc(-c3ccccc3)o2)cc1

photoluminescence quantum yield (in ClCCl): 0.233
Compound: CC(C)(C)C1CCC(=CS/C=C/c2ccc(-c3ccc(/C=C/SC=C4CCC(C(C)(C)C)CC4)cc3)cc2)CC1 (configuration not stated)

photoluminescence quantum yield (in ClCCl): 0.238
Compound: C(S/C=C/c1ccc(-c2ccc(/C=C/SC=C3CCCCC3)cc2)cc1)=C1CCCCC1

photoluminescence quantum yield (in C1CCOC1): 0.066
Compound: COc1ccc(C(=Cc2ccc(C=O)cc2)c2ccc(OC)cc2)cc1

photoluminescence quantum yield (in CC#N): 0.03
photoluminescence quantum yield (in CCCCCC): 0.03
Compound: Nc1ccc(/C=C/c2ccccc2)cc1

photoluminescence quantum yield (in ClC(Cl)Cl): 0.05
Compound: COCCN(CCOC)c1ccc(/C=C/c2sc3c4nc(C)sc4ccc3[n+]2C)cc1

photoluminescence quantum yield (in ClCCl): 0.168
Compound: CCn1c2ccc(-c3ccc(-c4cccs4)s3)cc2c2cc(-c3ccc(-c4cccs4)s3)ccc21

photoluminescence quantum yield (in ClCCl): 0.19
Compound: Cc1cc(-c2ccc(N(c3ccccc3)c3ccccc3)cc2)c2nsnc2c1-c1ccc(C(C)(C)C)cc1

photoluminescence quantum yield (in C1CCOC1): 0.006
photoluminescence quantum yield (in CC#N): 0.006
photoluminescence quantum yield (in ClC(Cl)Cl): 0.055
photoluminescence quantum yield (in ClCCl): 0.11
Compound: COc1ccc2cc(-c3ccc([N+](=O)[O-])cc3)ccc2c1

photoluminescence quantum yield (in ClCCl): 0.182
Compound: C(S/C=C/c1ccc(-c2ccc(/C=C/SC=C3CCCC3)cc2)cc1)=C1CCCC1

photoluminescence quantum yield (in ClCCl): 0.01
Compound: C(=C\c1ccncn1)/c1ccc(-c2ccco2)cc1

photoluminescence quantum yield (in C1CCCCC1): 0.84
photoluminescence quantum yield (in CC#N): 0.85
photoluminescence quantum yield (in CC(C)O): 0.81
photoluminescence quantum yield (in CO): 0.92
photoluminescence quantum yield (in CS(C)=O): 0.9
photoluminescence quantum yield (in ClC(Cl)Cl): 0.89
photoluminescence quantum yield (in c1ccccc1): 0.98
Compound: CN(C)C(=O)c1ccc(-c2nc3ccc(N(C)C)cc3s2)cc1

photoluminescence quantum yield (in C1CCOC1): 0.41
photoluminescence quantum yield (in ClCCl): 0.38
Compound: Cc1ccc(-c2ccc3ccc4cc(C(C)(C)C)cc5ccc2c3c45)cc1

Continued, compound first:

Compound: CCn1c(-c2ccc(-c3ccc(-c4ccc(-c5n(CC)c6ccccc6[n+]5CC)cc4)c(C)c3)cc2)[n+](CC)c2ccccc21
photoluminescence quantum yield (in O): 0.71

Compound: c1ccc2cc(-c3cc(-c4nccs4)nc(-c4nccs4)c3)ccc2c1
photoluminescence quantum yield (in CC#N): 0.36
photoluminescence quantum yield (in CCCCCC): 0.289
photoluminescence quantum yield (in CO): 0.328
photoluminescence quantum yield (in ClC(Cl)Cl): 0.166

Compound: CCOC(CN1C(=O)C2=C(c3cc4cc(C(C)(C)C)cc(C(C)(C)C)c4o3)N(CC(OCC)OCC)C(=O)C2=C1c1cc2cc(C(C)(C)C)cc(C(C)(C)C)c2o1)OCC
photoluminescence quantum yield (in ClC(Cl)Cl): 0.75

Compound: CCOC(=O)C1=C(N)n2c(=O)c3ccccc3c(=O)n2C1c1ccc([N+](=O)[O-])cc1 (configuration not stated)
photoluminescence quantum yield (in CS(C)=O): 0.049

Compound: CC(C)[Si](C#Cc1c2nc3c(nc2c(C#C[Si](C(C)C)(C(C)C)C(C)C)c2nc4c(nc12)C1c2ccccc2C4c2ccccc21)C1c2ccccc2C3c2ccccc21)(C(C)C)C(C)C
photoluminescence quantum yield (in CCCCCC): 0.33

Compound: Cc1csc2[n+]1[B-](F)(F)n1c(c3cccc4cccc1c43)=N2
photoluminescence quantum yield (in C1CCOC1): 0.83
photoluminescence quantum yield (in CC#N): 0.78
photoluminescence quantum yield (in CCCCCC): 0.99
photoluminescence quantum yield (in Cc1ccccc1): 0.99
photoluminescence quantum yield (in ClCCl): 0.95

Compound: CC(C)c1cc(C(C)C)c(B2c3cc(-n4c5ccccc5c5ccccc54)ccc3N(c3ccccc3)c3ccc(-n4c5ccccc5c5ccccc54)cc32)c(C(C)C)c1
photoluminescence quantum yield [1]: 0.99

Compound: COc1ccc2c(c1)c1cc(OC)ccc1n2-c1cc(Cl)c([C](c2c(Cl)cc(Cl)cc2Cl)c2c(Cl)cc(Cl)cc2Cl)c(Cl)c1
photoluminescence quantum yield (in C1CCCCC1): 0.006

Compound: CCCCCCn1c2cc(/C=C/c3cccs3)ccc2c2ccc(/C=C/c3cccs3)cc21
photoluminescence quantum yield (in ClC(Cl)Cl): 0.89

Compound: CCOC(CN1C(=O)C2=C(c3ccc(OC)c(OC)c3)N(CC(OCC)OCC)C(=O)C2=C1c1ccc(OC)c(OC)c1)OCC
photoluminescence quantum yield (in ClC(Cl)Cl): 0.9

Compound: CN(C)c1ccc(C2=[N+]3C(=Nc4c(-c5ccc(O)cc5)cc(-c5ccc(N(C)C)cc5)n4[B-]3(F)F)C(c3ccc(O)cc3)=C2)cc1
photoluminescence quantum yield (in C1CCOC1): 0.04
photoluminescence quantum yield (in Cc1ccccc1): 0.1

Compound: CCCCN1C(=O)c2c(Br)c(Br)c3c4c(Br)c(Br)c5c6c(c(Br)c(Br)c(c7c(Br)c(Br)c(c2c37)C1=O)c64)C(=O)N(CCCC)C5=O
photoluminescence quantum yield (in ClC(Cl)Cl): 0.01

Compound: CB1C=Cc2ccc3ccccc3c2N1
photoluminescence quantum yield (in C1CCCCC1): 0.7

Compound: O=[N+]([O-])c1ccc([N+]2=Cc3ccc4c5c(ccc4c3O[B-]2(c2ccccc2)c2ccccc2)C=[N+](c2ccc([N+](=O)[O-])cc2)[B-](c2ccccc2)(c2ccccc2)O5)cc1
photoluminescence quantum yield (in Cc1ccccc1): 0.63
photoluminescence quantum yield (in ClCCl): 0.48

Compound: CC1(C)c2cc(/C=C/c3nc(/C=C/c4ccc5c(c4)C(C)(C)c4cc(N(c6ccccc6)c6ccc7ccccc7c6)ccc4-5)nc(/C=C/c4ccc5c(c4)C(C)(C)c4cc(N(c6ccccc6)c6ccc7ccccc7c6)ccc4-5)n3)ccc2-c2ccc(N(c3ccccc3)c3ccc4ccccc4c3)cc21
photoluminescence quantum yield (in Cc1ccccc1): 0.25

Compound: CCCN1/C(=C/C=C(/C=C/C2=[N+](CCC)c3ccccc3C2(C)C)c2cc[n+](C)cc2)C(C)(C)c2ccccc21
photoluminescence quantum yield (in CO): 0.14
photoluminescence quantum yield (in CS(C)=O): 0.12
photoluminescence quantum yield (in O): 0.02

Compound: COc1ccc2c(-c3nc(-c4ccccc4F)no3)cc(=O)oc2c1
photoluminescence quantum yield (in CCO): 0.57
photoluminescence quantum yield (in ClC(Cl)Cl): 0.25

Compound: CCCCCCC(CCCCCC)n1c(=O)c2c3ccc4cccc5c6cccc7ccc(c2c1=O)c(c76)c3c45
photoluminescence quantum yield (in C1CCCCC1): 0.32
photoluminescence quantum yield (in CC#N): 0.33
photoluminescence quantum yield (in CC(C)=O): 0.27
photoluminescence quantum yield (in CCCCCC): 0.32
photoluminescence quantum yield (in CCO): 0.3
photoluminescence quantum yield (in CCOCC): 0.34
photoluminescence quantum yield (in CS(C)=O): 0.44
photoluminescence quantum yield (in Cc1ccccc1): 0.42
photoluminescence quantum yield (in ClC(Cl)(Cl)Cl): 0.37
photoluminescence quantum yield (in ClC(Cl)Cl): 0.35

Compound: CCN(CC)c1ccc2c(c1)oc(=O)c1c(C)nc3c(c(-c4ccccc4)nn3C)c12
photoluminescence quantum yield (in C1CCCCC1): 0.699
photoluminescence quantum yield (in CCOC(C)=O): 0.627
photoluminescence quantum yield (in CN(C)C=O): 0.483
photoluminescence quantum yield (in CO): 0.43
photoluminescence quantum yield (in ClCCl): 0.673

Compound: F[B-]1(F)n2c(c(-c3ccccc3)c(-c3ccccc3)c2-c2ccccc2)C=C2C(c3ccccc3)=C(c3ccccc3)C(c3ccccc3)=[N+]21
photoluminescence quantum yield (in C1CCOC1): 0.96

Compound: CCCCCCCCCCCCCCCCCCN1C(=O)c2ccc3c4ccc5c6c(ccc(c7ccc(c2c37)C1=O)c64)C(=O)NC5=O
photoluminescence quantum yield (in CN(C)C=O): 0.37

Compound: Clc1nc(Cl)nc(Nc2cc3ccc4cccc5ccc(c2)c3c45)n1
photoluminescence quantum yield (in CC#N): 0
photoluminescence quantum yield (in CCCCOCCCC): 0.06
photoluminescence quantum yield (in CO): 0

Compound: CCC1(CC)c2ccccc2-c2c1c1c(c3c2C(CC)(CC)c2cc(N(c4ccccc4)c4ccccc4)ccc2-3)C(CC)(CC)c2ccccc2-1
photoluminescence quantum yield (in C1CCOC1): 0.49

Compound: CC(C)(C)c1cc(-c2cc3c(cc(-c4cc(C(C)(C)C)cc(C(C)(C)C)c4)n3-c3ccc(C(=C(c4ccccc4)c4ccccc4)c4ccccc4)cc3)n2-c2ccc(C(=C(c3ccccc3)c3ccccc3)c3ccccc3)cc2)cc(C(C)(C)C)c1
photoluminescence quantum yield (in ClCCl): 0.0013

Compound: COc1cc(OC)cc(C2=C(c3cc(OC)c(OC)c(OC)c3)C3=Nc4c(-c5cc(OC)c(OC)c(OC)c5)c(-c5cc(OC)cc(OC)c5)c(-c5ccc(C(C)(C)C)cc5)n4[B-](F)(F)[N+]3=C2c2ccc(C(C)(C)C)cc2)c1
photoluminescence quantum yield (in Cc1ccccc1): 0.01

Compound: CCC1(CC)c2cc(B(c3c(C)cc(C)cc3C)c3c(C)cc(C)cc3C)ccc2-c2c1c1c(c3c2C(CC)(CC)c2cc(N(c4ccccc4)c4ccccc4)ccc2-3)C(CC)(CC)c2cc(B(c3c(C)cc(C)cc3C)c3c(C)cc(C)cc3C)ccc2-1
photoluminescence quantum yield (in C1CCOC1): 0.2

Compound: Cc1cc(N2c3ccccc3C(C)(C)c3ccccc32)ccc1-c1cc(-c2ccc(N3c4ccccc4C(C)(C)c4ccccc43)cc2C)ncn1
photoluminescence quantum yield (in O=P(c1ccccc1)(c1ccccc1)c1ccccc1Oc1ccccc1P(=O)(c1ccccc1)c1ccccc1): 0.71

Compound: c1ccc2c(c1)c1ccccc1n2-c1ccc2cc(-c3ccc(-c4ccc(-c5cc6ccc(-n7c8ccccc8c8ccccc87)cc6o5)cc4)cc3)oc2c1
photoluminescence quantum yield (in Cc1ccccc1): 0.96
photoluminescence quantum yield (in c1ccc2c(c1)c1ccccc1n2-c1ccc(-c2ccc(-n3c4ccccc4c4ccccc43)cc2)cc1): 1

Compound: CCCCCCOc1ccc2ccc3oc(=O)cc4cc(OCCCCCC)c1c2c43
photoluminescence quantum yield (in CC1CCCO1): 0.83

Compound: c1cnc(-c2c3ccccc3c(-c3cncnc3)c3ccccc23)nc1
photoluminescence quantum yield (in CCO): 0.61
photoluminescence quantum yield (in ClCCl): 0.78

Compound: O=C(c1ccc(N2c3ccccc3Oc3ccccc32)cc1)c1cccc(C(=O)c2ccc(N3c4ccccc4Oc4ccccc43)cc2)c1
photoluminescence quantum yield (in Cc1ccccc1): 0.36
photoluminescence quantum yield [1]: 0.71

Compound: O=c1c2cc(C#Cc3ccccc3)ccc2nc2ccc(C#Cc3ccccc3)cn12
photoluminescence quantum yield (in ClCCl): 0.41

Compound: CCN1C(=CC2=C([O-])C(=Cc3[se]c4ccccc4[n+]3CC)C2=O)[Se]c2ccccc21
photoluminescence quantum yield (in CC(C)O): 0.14

Compound: O=C(O)C1=C(C(=O)O)C2=C[C@H]3c4ccccc4[C@]2(S1)c1ccccc13
photoluminescence quantum yield (in ClCCl): 0.72

Compound: O=P1(c2ccccc2)C2=C(c3ccccc31)[Si](c1ccccc1)(c1ccccc1)c1cc(N(c3ccccc3)c3ccccc3)ccc12 (configuration not stated)
photoluminescence quantum yield (in CC#N): 0.52
photoluminescence quantum yield (in CO): 0.17
photoluminescence quantum yield (in Cc1ccccc1): 0.86

Compound: COc1ccc2cc(/C=C/C3=CC(c4ccccc4)=[O+][B-](F)(F)O3)ccc2c1
photoluminescence quantum yield (in ClCCl): 0.43
